# Like-named read-outs stand apart in the source and are kept apart here.
# Tested on: AsPC1 pancreatic cancer cell line
# Description: Mock-treated cells were cultured with the equivalent volume of PBS alone.
# Total RNA was isolated from cultured cells using TRIZOL reagent (invitrogen, Carlsbad, Calif.) and purified using RNeasy Mini Kit (Qiagen, Valencia, Calif.). First- and second-stranded cDNA was synthesized from 10 μg of total RNA using 17-dT) primer (Genset Corp., La Jolla, Calif.) and Superscript Choice system (Invitrogen). Labeled cRNA was synthesized from the purified cDNA by in vitro transcription reaction using the BioArray High Yield RNA Transcript Labeling Kit (Enzo Diagnostics, Inc., Farmingdale, N.Y.) at 37° C. for 6 h. The cRNA was fragmented at 94° C. for 35 min. in a fragmentation buffer [40 mM Tris-acetate @ pH 8.1, 100 mM potassium acestate, and 30 mM magnesium acetate]. The fragmented cRNA was then hybridized to the Human Genome U133A chips (Affymetrix, Santa Clara, Calif.) with 18462 unique gene/EST transcripts at 45° C. for 16 h. The washing and staining procedure was performed in the Affymetrix Fluidics Station according to the manufacturer's instructions. The probes were then scanned using a laser scanner, and signal intensity for each transcript (background-subtracted and adjusted for noise) was calculated using Microarray Suite Software 5.0 (Affymetrix).
# Fold change analysis of signal intensities obtained from oligonucleotide microarrays between the two treatment groups was performed using Data Mining software (Afrymetrix).
# The global changes in gene expression proxies induced by 5Aza-dC in four pancreatic cancer cell lines (AsPCl, Hs766T, MiaPaCa2, and Panel) were determined using the Afrymetrix U133 oligonucleotide microarrays with 18462 probes sets (transcripts) covering over 13000 full-length sequences of known genes.
smiles,measurement,setting,value
"Nc1ncn([C@H]2C[C@H](O)[C@@H](CO)O2)c(=O)n1 [5Aza-dC, 5 aza 2′ deoxycytidine]",Fold-change after 5Aza-dC treatment,"ANGPT2, AsPC1",6.15 fold
same,"transcripts with >5-fold increase, share of the 18462 transcripts analyzed",AsPC1,1.2%
same,transcripts with substantial increase (>5-fold) in signal intensities,"AsPC1, vs mock-treated",225 transcripts
same,Fold-change after 5Aza-dC treatment,"BARD1, AsPC1",−1.07 fold
same,Fold-change after 5Aza-dC treatment,"BNIP3, AsPC1",6.12 fold
same,Fold-change after 5Aza-dC treatment,"BST2, AsPC1",1.97 fold
same,Fold-change after 5Aza-dC treatment,"CACNA1G, AsPC1",1.83 fold
same,Fold-change after 5Aza-dC treatment,"CCNE2, AsPC1",1.48 fold
same,Fold-change after 5Aza-dC treatment,"CDKN1A (p21), AsPC1",2.21 fold
same,Fold-change after 5Aza-dC treatment,"CDKN1C, AsPC1",0.6 fold
same,Fold-change after 5Aza-dC treatment,"CLDN5, AsPC1",22.34 fold
same,Fold-change after 5Aza-dC treatment,"CSF1, AsPC1",1.12 fold
same,Fold-change after 5Aza-dC treatment,"DR3, AsPC1",1.47 fold
same,Fold-change after 5Aza-dC treatment,"FOXE1, AsPC1",3.51 fold
same,Fold-change after 5Aza-dC treatment,"GAGE1, AsPC1",−0.54 fold
same,Fold-change after 5Aza-dC treatment,"GAGE4, AsPC1",15.66 fold
same,Fold-change after 5Aza-dC treatment,"GAGE6, AsPC1",15.59 fold
same,Fold-change after 5Aza-dC treatment,"GAGE7, AsPC1",14.08 fold
same,Fold-change after 5Aza-dC treatment,"HOXA1, AsPC1",25.8 fold
same,Fold-change after 5Aza-dC treatment,"IGF2, AsPC1",0.55 fold
same,Fold-change after 5Aza-dC treatment,"IL1R1, AsPC1",7.51 fold
same,Fold-change after 5Aza-dC treatment,"ISG20, AsPC1",−1.12 fold
same,Fold-change after 5Aza-dC treatment,"JPH3, AsPC1",1.27 fold
same,Fold-change after 5Aza-dC treatment,"KLK10, AsPC1",1.03 fold
same,Fold-change after 5Aza-dC treatment,"LDOC1, AsPC1",8.99 fold
same,Fold-change after 5Aza-dC treatment,"LHX1, AsPC1",5.22 fold
same,Fold-change after 5Aza-dC treatment,"MAGE1, AsPC1",1.52 fold
same,Fold-change after 5Aza-dC treatment,"MATN1, AsPC1",−1.44 fold
same,Fold-change after 5Aza-dC treatment,"NEFH, AsPC1",2.94 fold
same,Fold-change after 5Aza-dC treatment,"NPTX2, AsPC1",13.97 fold
same,Fold-change after 5Aza-dC treatment,"PAX6, AsPC1",8.94 fold
same,Fold-change after 5Aza-dC treatment,"PDYN, AsPC1",1.33 fold
same,Fold-change after 5Aza-dC treatment,"PLAT, AsPC1",−1.15 fold
same,Fold-change after 5Aza-dC treatment,"PLEK2, AsPC1",1.37 fold
same,Fold-change after 5Aza-dC treatment,"SARP2, AsPC1",−1.89 fold
same,Fold-change after 5Aza-dC treatment,"SMARCA1, AsPC1",7.89 fold
same,Fold-change after 5Aza-dC treatment,"ST14, AsPC1",−1.21 fold
same,Fold-change after 5Aza-dC treatment,"TIMP3, AsPC1",11.89 fold
same,Fold-change after 5Aza-dC treatment,"TJP2, AsPC1",−1.24 fold
same,Fold-change after 5Aza-dC treatment,"TNF, AsPC1",−1.17 fold
same,Fold-change after 5Aza-dC treatment,"UCHL1, AsPC1",6.62 fold
same,Fold-change after 5Aza-dC treatment,"WNT7A, AsPC1",2.7 fold
same,Fold-change after 5Aza-dC treatment,"XAGE-1, AsPC1",28.59 fold
same,Fold-change after 5Aza-dC treatment,"granulocytemacrophage colony-stimulating factor (M11734), AsPC1",1.44 fold
same,Fold-change after 5Aza-dC treatment,"interferon, alpha-inducible protein (NM_022873), AsPC1",4.48 fold
same,Fold-change after 5Aza-dC treatment,"p53-induced protein (PIGII), AsPC1",−1.22 fold
same,Fold-change after 5Aza-dC treatment,"reprimo, AsPC1",1.66 fold
same,Fold-change after 5Aza-dC treatment,"stratifin (14-3-3 sigma), AsPC1",−1.48 fold
same,Fold-change after 5Aza-dC treatment,"stromal antigen 3 (STAG5), AsPC1",14.06 fold
same,Fold-change after 5Aza-dC treatment,"testin, AsPC1",−1.23 fold

# Reference: patent publication US8785614B2, “Aberrantly methylated genes in pancreatic cancer” (The Johns Hopkins University, priority 2003, dated 2014)
